Patent publication US20210308138A1, “TISSUE TRANSGLUTAMINASE MODULATORS FOR MEDICINAL USE” (Aarhus Universitet, priority 2018, published 2021)

Legend:
purified human TG2 = target: T1, purified human TG2 (Homo sapiens, UniProt P21980); test: Conformational shift assay by native polyacrylamide gel electrophoresis (native-PAGE); format: biochemical; conditions: TG2 2.5 uM; 1 mM LDN-27219, 1 mM GTPNa2, or 0.2 mM Z-DON with CaCl2
T1 construct: purchased Zedira (Darmstadt, Germany); host or cells: insect cells
T1 sequence (P21980 1-687): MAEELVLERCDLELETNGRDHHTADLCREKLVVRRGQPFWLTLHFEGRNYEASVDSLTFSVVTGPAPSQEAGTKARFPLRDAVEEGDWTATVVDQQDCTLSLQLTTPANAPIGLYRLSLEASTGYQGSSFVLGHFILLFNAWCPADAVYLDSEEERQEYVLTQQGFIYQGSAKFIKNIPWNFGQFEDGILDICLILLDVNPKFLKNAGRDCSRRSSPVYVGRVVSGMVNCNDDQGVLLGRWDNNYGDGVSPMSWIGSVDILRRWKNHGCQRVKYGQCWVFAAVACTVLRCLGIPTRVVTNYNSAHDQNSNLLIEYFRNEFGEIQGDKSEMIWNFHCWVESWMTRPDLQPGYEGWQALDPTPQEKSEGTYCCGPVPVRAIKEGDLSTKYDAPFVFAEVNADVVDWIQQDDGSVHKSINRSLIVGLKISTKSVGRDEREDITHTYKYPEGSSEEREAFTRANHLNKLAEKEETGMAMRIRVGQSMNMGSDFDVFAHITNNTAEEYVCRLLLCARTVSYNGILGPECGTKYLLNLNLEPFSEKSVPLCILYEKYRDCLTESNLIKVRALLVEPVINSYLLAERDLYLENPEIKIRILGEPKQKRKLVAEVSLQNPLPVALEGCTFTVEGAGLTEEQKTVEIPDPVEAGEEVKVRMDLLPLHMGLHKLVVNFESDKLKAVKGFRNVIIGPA
Method: For the conformational shift assay using native polyacrylamide gel electrophoresis (native-PAGE) purified and functional human TG2 protein produced in insect cells was obtained from Zedira (Darmstadt, Germany).
Native gel electrophoresis experiments were performed using a method similar to those previously described (Pinkas D M, et al., PLoS Biol, 2007, 5(12), 2788-2796.) (Iversen R, et al., Proc Natl. Acad. Sci., 2014, 111(43), 17146-17151). Briefly, TG2 (2.5 uM) was incubated for 30 min at room temperature in preincubation buffer (75 mM imidazole, 0.5 mM EDTA, 5 mM DTT [pH 7.2], 10% DMSO) with or without 1 mM GTPNa2 or 1 mM LDN-27219 before adding Native Sample Buffer for Protein Gels (Bio-Rad) or in preincubation buffer with 0.2 mM Z-DON 30 min prior addition of 5 mM of CaCl2 for 20 min. Native buffer was added (dilution 1:2), and 1.5 ug of protein was loaded onto a 4-20% Criterion™ TGX Stain-Free™ gel (Bio-Rad) using Tris-glycine as the running buffer. For 75 min, 125 V was applied at 4° C. The bands were visualized using stain-free technology by exposing the gels to UV light and capturing the image using a PXi 4 Touch image analysis system (Syngene). Band intensity analysis was carried out using GeneTools 4 software (Syngene).

[1] = system: small mesenteric arteries; test: Acetylcholine-induced endothelium-dependent relaxation of phenylephrine pre-contracted small mesenteric arteries, isometric myograph (ex vivo); set-up: species or system Male Wistar rats; conditions: 1 hour incubation; Z-DON 4·10^−5, Boc-DON 10^−5, VA-5 10^−5 mol/L; 12-14 weeks old rats
Method: Small mesenteric arteries were mounted in microvascular myographs (Danish Myotechnology, Aarhus, Denmark) using two 40 μm wires and stretched to their optimal diameter for isometric tension recordings, which corresponded to 0.9 times the estimated internal diameter at 100 mmHg of transmural pressure. PSS solution in the myograph bath was heated to 37° C. and continuously bubbled with 5% CO2 in air to maintain pH (7.4). The vessel viability was tested at the beginning of each experiment by measuring the vasoconstrictor responses to a solution with a high K^+ concentration (KPSS), equivalent to PSS except that NaCl was exchanged for KCl on an equimolar basis, giving a final concentration of 123.7 mmol/L K^+ and the presence of endothelium was confirmed by addition of acetylcholine (ACh) (10^−5) after pre-constriction with noradrenaline (5·10^−6 mol/L), arteries with less than 75% of relaxation were discarded.
Mesenteric arteries from rats of different age were incubated with (10^−6 mol/L) LDN-27219 or vehicle for 25 minutes and pre-contracted with phenylephrine (Phe) (10^−5 mol/L). Then cumulative addition of acetylcholine (ACh) caused the relaxation of the mesenteric arteries and the concentration-response curves were constructed.
Rats of 5-7 weeks age, about 12 weeks age, and more than 30 weeks of age were tested respectively. The results of the isometric tension studies are shown in FIGS. 1, A), B) and C) respectively, each representing a different their age group.
(§1) The small mesenteric arteries were prepared in the same way is described in example 1.

Male Wistar rats = test: Mean arterial pressure (MAP) in vivo measurement after intrajugular infusion; conditions: VA-5 single dose 1 mg/kg, intrajugular infusion during 3 minutes; adult and older rats
Method: For ‘in vivo’ experiments Wistar rats of different age were fasted 8 h before anesthesia with 35 mg/kg of S-ketamine and 50 mg/kg of pentobarbital sodium administered intraperitoneally.
Male Wistar rats with 12-14 and 30-35 weeks of age were anesthetized with s-ketamine (35 mg/kg) and pentobarbital (50 mg/kg) and placed on a heated blanket to maintain body temperature at 37° C. ECG needles were installed for electrocardiographic measurements and a solid state catheter (Millar Inc, Houston, USA) was introduced into the carotid artery to measure MAP. MAP and electrocardiographic data was continuously recorded on a computerized data acquisition system (PowerLab, ADInstruments). Adequate depth of anesthesia was checked periodically by the absence of the toe pinch withdrawal effect and ⅓ of the initial dose of anesthetics was administered intraperitoneally when needed (usually each 1½ h). Changes in MAP and electrocardiographic signal in response to intrajugular infusion during 3 minutes of different doses of LDN-27219 and the corresponding vehicle (PEG-400) were studied.
The Area Under the Curve (AUC) was calculated using Graphpad Prism 5.1 (GraphPad Software, San Diego, Calif., USA) for each response to the change in MAP that was collected during the experiments in example 3. The AUC gives information about the maximal response, and about the duration of the effect.
Rats of different age in these experiments were anesthetized, prepared and catheterized as described in Example 3.

[2] = system: vascular smooth muscle cells (VSMCs) potassium currents; test: Whole-cell patch-clamp of K+ outward currents in isolated vascular smooth muscle cells; format: cell-based, rat; conditions: LDN-27219 3·10^−5 mol/L 12 min; VA-5 5·10^−5 mol/L one hour incubation
Method: For isolation of VSMCs, rat mesenteric arteries were dissected as previously described, opened longitudinally and stored in ice-cold dissociation solution containing (mmol/L): 119 NaCl, 4.7 KCl, 1.18 KH2PO4, 1.17 MgSO4, 24.9 NaHCO3, 0.027 EDTA, and 11 glucose, pH=7.4. Arteries were then equilibrated during 10 min in a dissociation solution with bovine albumin serum (BSA; 1 mg/mL) at 37° C. and then exposed to the same solution supplemented with papain (0.5 mg/mL; Worthington Biochemical Corp., Lakewood, N.J., USA) and dithiothreitol (DTT; 1 mg/mL) at 37° C. for 8 min. Arteries were then washed in ice-cold dissociation solution and moved to dissociation solution containing BSA (1 mg/mL) and collagenase (0.7 mg/mL type F and 0.4 mg/mL type H; Worthington Biochemical Corp.) at 37° C. for 3 min. […]
Membrane currents were recorded under the whole-cell configuration of the patch-clamp technique using an Axon Multiclamp 700A amplifier (Axon instruments, Molecular Devices, CA, USA). […] Current-voltage relations were determined using 600 ms voltage ramps from −100 to 160 mV and a holding potential (Vh) of −65 mV for SMCs.
Amplitudes of K^+-outward currents were measured in control conditions and 12 min after the addition of LDN-27219 (3·10^−5 mol/L) to the extracellular solution by a perfusion system.

[3] = system: small mesenteric arteries; conditions: M. Engholm et al., British J. Pharm. (2016), 173, 839-855; cited from earlier work
[4] = system: small mesenteric arteries; test: Direct relaxation of U46619 pre-contracted small mesenteric arteries, concentration-response curves; set-up: species or system Male Wistar rats; conditions: U46619 4·10^−7 mol/L; LDN-27219 10^−8-10^−5 mol/L; Z-DON 10^−8-3·10^−4 mol/L; endothelium intact
Method: as §1
The small mesenteric arteries were pre-contracted with the thromboxane analogue, U46619 (4·10^−7 mol/L) and concentration-response curves for TG2 specific inhibitors, LDN-27219 (10^−8-10^−5 mol/L) and Z-DON (10^−8-3·10^−4 mol/L) were constructed. To study the role of the endothelial pathways in LDN-27219 relaxation, concentration-response curves were constructed for it in arteries whose endothelium had been removed mechanically by rubbing the lumen repeatedly with a human scalp hair.

Row | Compound | relative abundance of closed / open conformation of TG2 (purified human TG2) | ACh relaxation compared to the vehicle [1] | further results
1 | Nc1nc2c(ncn2[C@@H]2O[C@H](COP(=O)([O-])OP(=O)([O-])OP(=O)([O-])[O-])[C@@H](O)[C@H]2O)c(=O)[nH]1.[Na+].[Na+].[Na+].[Na+] [GTP, guanosine 5′-triphosphate sodium salt] | completely force TG2 to its closed conformation | – | –
2 | C=CC(=O)NCCCC[C@H](NC(=O)OCc1ccccc1)C(=O)N1CCN(C(=O)c2cc3ccc(O)cc3oc2=O)CC1 [VA-5, (S)-Benzyl (6-acrylamido-1-(4-(7-hydroxy-2-oxo-2H-chromene-3-carbonyl)piperazin-1-yl)-1-oxohexan-2-yl)carbamate, reference compound] | – | slight inhibition of ACh relaxation | mean blood pressure (MAP) (Male Wistar rats): did not produce any change in the mean blood pressure; potassium currents compared to control conditions [2]: significantly smaller potassium currents
3 | NCCSSCCN [cystamine] | – | – | effects on endothelial pathways [3]: lacked effects on endothelial pathways
4 | Boc-DON-Gln-Ile-Val-OMe [reference compound] | – | no significant effect | –
5 | Z-DON-Val-Pro-Leu-OMe [reference compound] | force its open conformation | slight inhibition of ACh relaxation | relaxation of U46619 pre-contracted arteries [4]: failed to induce any vasodilation
